# Measurements from PubChem BioAssay AID1996.
# Details: buffer; pH 7.4; 200.0 µM
row,solubility kinetic [µg/mL],Structure (SMILES)
1,> 52.6,O=C1OC(NCc2cccnc2)(c2ccc(Cl)cc2)c2ccccc21 (centres undefined)
2,> 54.7,Cc1cccc(Nc2nnc(SCC(=O)NCC3CCCO3)s2)c1 (centres undefined)
3,30.5,COc1ccccc1CCC(=O)OCC(=O)Nc1ccc2[nH]c(=O)[nH]c2c1
4,> 45.7,COc1ccc(C)cc1Nc1c2c(nc3ccccc13)CCC2
5,7.1,O=C(Nc1cccc(Cl)c1)C1=CC=CN2CCS(=O)(=O)N=C12
6,29.5,COc1ccccc1NC(=O)c1cc(N)cc(C(=O)Nc2ccccc2OC)c1
7,6.4,Cc1ccsc1C(=O)OC(C)C(=O)NC1CCCCC1C (centres undefined)
8,> 35.8,O=C(Nc1ccc(Cl)cc1)c1cncs1
9,> 31.8,CC1NC(=S)N(C2CCCCC2)C1=O (centres undefined)
10,7.3,CN(C)S(=O)(=O)c1ccc(Cl)c(NC(=O)COC(=O)CCC2CCCCC2)c1
11,4.6,O=C(Nc1ccc(C(F)(F)F)cc1)c1ccc2ncsc2c1
12,> 51.1,COC(=O)CSc1ncc(S(=O)(=O)c2ccccc2)c(=O)[nH]1
13,< 0.3,CC(=O)Nc1nc(-c2ccc3ccccc3c2)cs1
14,0.5,COc1ccccc1C(=O)Nc1sc2c(c1C#N)CCC2
15,< 0.3,Cc1cc(O)c(C(=O)Nc2cccc(Cl)c2)c(=O)n1C
16,4.1,COc1ccc(CNC(=O)c2c[nH]c3ccccc3c2=O)cc1
17,> 43.7,O=C(COc1ncnc2sccc12)NC1CCCCC1
18,> 46.4,CC1CN(C(=O)c2cc([N+](=O)[O-])cc([N+](=O)[O-])c2)CC(C)O1 (centres undefined)
19,< 0.4,CCOc1ccc(N2C(=O)/C(=C/c3ccccn3)SC2=S)cc1
20,36.7,CCc1ccc(CN(C)Cc2nc(COc3ccccc3)no2)nc1
21,4,COC(=O)Nc1ccc(S(=O)(=O)N2CCC(C(=O)NCc3ccc4c(c3)OCO4)CC2)cc1

row,solubility kinetic [µg/mL],Structure (SMILES)
1,> 48.6,O=C(NC1=NCCS1)C1CC(=O)N(c2ccc(Cl)cc2)C1 (centres undefined)
2,> 56.9,COc1ccc(OC)c(NC(=S)N2CCN(C(=O)C3CCCO3)CC2)c1 (centres undefined)
3,9.9,O=C(CCCc1nc2ccccc2s1)Nc1ccccc1
4,> 43.7,O=c1[nH]c(/C=C\c2ccc(O)c(O)c2)nc(O)c1[N+](=O)[O-]
5,7.6,O=C(COC(=O)c1ccc(Cl)c([N+](=O)[O-])c1)NC1CCCC1
6,> 43.4,Cc1nn(CC(=O)NCc2cccnc2)c(C)c1[N+](=O)[O-]
7,3.2,O=C1Nc2ccccc2/C1=C/c1ccccc1Cl
8,> 41.3,CC(Oc1ccccc1)C(=O)NC1CCCCCCC1 (centres undefined)
9,15.7,COCc1ccc(C(=O)Nc2cccc(S(=O)(=O)N(C)c3ccccc3)c2)cc1
10,10,CC(=O)N(/C=C1\SC(=S)N(c2ccccc2)C1=O)c1ccccc1
11,46.1,O=C1CCCCCN1CP(=O)(O)CN1CCCCCC1=O
12,4.7,O=C(Nc1ccccc1N1CCOCC1)c1ccc2c(c1)OCO2
13,33.3,O=C(O)C1CCN(S(=O)(=O)Cc2ccccc2)CC1
14,20.8,CCOC(=O)CC(c1ccc(N)cc1)n1c(C)ccc1C (centres undefined)
15,8,O=[N+]([O-])c1ccc(-c2ccc(/C=N/O)o2)cc1
16,7.6,Cc1cc(Nc2ccc(C)c(Cl)c2)nc(N2CCOCC2)n1
17,4.3,COc1ccc(S(=O)(=O)N2CCCCC2)cc1NS(=O)(=O)c1ccccc1
18,1.1,NC(=O)COc1ccc2oc(-c3ccccc3)cc(=O)c2c1
19,> 47.2,CCOC(=O)Cn1cnc2scc(-c3ccccc3)c2c1=O
20,> 37.5,Cc1cc(C(=O)N2CCC(C(N)=O)CC2)c(C)o1
21,37.5,CC(C)C(=O)Nc1cccc(-c2nc3ncccc3o2)c1

row,solubility kinetic [µg/mL],Structure (SMILES)
1,9.6,Cc1cccc(OCc2nc(C#N)c(N3CCCC3)o2)c1
2,1.9,O=C(Cc1cccc2ccccc12)Nc1ccccc1
3,31.6,COc1ccc(C(=O)COc2ccccc2C(N)=O)cc1
4,7,Cc1cc(C)n(CC(=O)N2CCc3ccccc32)c(=O)c1C#N
5,0.9,CC(C)c1ccc(NS(=O)(=O)c2ccc3c(c2)oc(=O)n3C)cc1
6,14,Cc1ccc(NC(=O)[C@@H]2CCCN2S(=O)(=O)c2ccc(Cl)cc2)cc1
7,< 0.4,Cn1c(SCc2ccc(Br)cc2)nc2c(c1=O)SCC2
8,45.1,Cc1ccc(NC(=O)C2CCN(C(=O)c3ccco3)CC2)cc1C
9,> 56,O=C1Cc2cc(S(=O)(=O)Nc3ccc(N4CCOCC4)cc3)ccc2N1
10,1.7,Cc1ccc2c(c1)c1c3n2CCN(CC(N)=O)C3CCC1 (centres undefined)
11,< 0.4,CCOC(=O)c1cc(-c2csc(-c3cccc(Cl)c3)n2)on1
12,> 61.6,O=C(O)CCC(=O)Nc1ccc(Br)cc1C(=O)c1ccccc1Cl
13,24,CCN(CC)CCCN=C(N)N.O=S(=O)(O)O
14,26.9,CCOC(=O)N1CCN(Cc2ccc3ccccc3c2)CC1
15,18.4,CC(OC(=O)[C@@H]1CCCN1C(=O)c1cccs1)C(=O)Nc1cccc([N+](=O)[O-])c1 (some centres undefined)
16,42.6,COc1ccc(OCC(O)CNC2CCCC2)cc1.Cl (centres undefined)
17,31.6,CN1C(=O)C2(OCCCO2)c2ccccc21
18,31.6,O=[N+]([O-])c1cccnc1Oc1ccc(F)cc1
19,> 45.1,Nc1nnc(SCC(=O)NC2CCCCCCC2)s1
20,8.9,Cc1ccc(OC(C)C(=O)Nc2ncc(Cl)cc2Cl)c([N+](=O)[O-])n1 (centres undefined)
21,39.3,Cc1ccc(C)c(OCCCN2CCNCC2)c1.Cl

row,solubility kinetic [µg/mL],Structure (SMILES)
1,46.5,COc1cccc(CN(C)C(=O)c2csc3c2CCCC3)c1OC
2,< 0.6,COc1ccc(NC(=O)C2C3CC/C=C\CCC32)cc1 (centres undefined)
3,> 51.5,O=C(CN1C(=O)NC2(CCOc3ccccc32)C1=O)N1CCCCC1 (centres undefined)
4,> 41.7,CN(CC(=O)Nc1ccc(F)cc1)C(=O)C1CCCC1
5,18,Cc1cc(C(=O)Nc2ncc(C)s2)c2ccccc2n1
6,> 46.7,O=C(c1ccc(F)cc1)C1CCN(C(=O)c2ccccc2)CC1
7,42.8,Cc1ccc2oc(C(=O)NCC3CCOCC3)c(C)c2c1
8,15.1,O=C1C(Cl)=C(N2CCCCCC2)C(=O)N1c1ccc(Br)cc1
9,60.6,COc1ccc(CN2CCN(C(=O)C3CCN(C(=O)Nc4ccccc4)CC3)CC2)cc1OC
10,> 47.6,COC(=O)Cc1c(O)ccn(Cc2ccc3c(c2)OCO3)c1=O
11,35.7,O=C(NC(=S)N1CCCC1)c1ccccc1Cl
12,7.4,COc1ccccc1CNc1ccc2c(c1)CCC2
13,8.1,O=C(Nc1ccc(F)cc1)Oc1ccccc1N1CCOCC1
14,42.2,CCCOc1ccc(CCCN=C(N)N)cc1Cl.O=S(=O)(O)O
15,37.9,C=CCn1c(NCc2ccc(OC)cc2O)nc2ccccc21
16,> 61.9,O=C(NCc1cccnc1)c1ccc(NS(=O)(=O)c2cccc([N+](=O)[O-])c2)cc1
17,< 0.3,O=C(Nc1ccc(F)cc1)c1cc(-c2ccccc2)no1
18,> 42.5,O=C(CC(Cc1ccccc1)C(=O)O)Nc1ccccc1 (centres undefined)
19,> 49,Cc1ccccc1NC(=O)CCCN1C(=O)C2CC=CCC2C1=O (centres undefined)
20,37.7,OC(C#CCCN1CCCCC1)(c1ccccc1)c1ccccc1
21,19.9,CC(C(=O)N(C)C)N1c2cccc3cccc(c23)S1(=O)=O (centres undefined)
